Patent publication US12290519B2, “Anti-inflammatory coupling compound drug, and preparation method therefor and use thereof” (COVAL BIOPHARMA (SHANGHAI) CO., LTD., priority 2021, dated 2025)

test: Hydrolysis rate / drug release rate of the compounds (release of JAK inhibitor, HPLC); format: physicochemical; settings: % release of JAK inhibitor from sample in acetonitrile/water=7/3 (v/v), 37° C. constant temperature shaker, sampled days 1-4, HPLC
Outline: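 Compounds (about 5 mg per 20 mL) were dissolved in acetonitrile/water 7/3 (v/v) and held sealed at 37° C in a shaker, sampled on days 0, 1, 2, 3 and 4. Released JAK inhibitor was quantified by HPLC peak area against a 0.0002–0.08 mg/mL reference curve and expressed as % release corrected for molecular weights.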

Structure (SMILES)	Release Rate (%/day)
CC(=O)Oc1ccccc1C(=O)OCn1ccc2c(N(C)[C@H]3CN(C(=O)CC#N)CC[C@H]3C)ncnc21 [Ex. 56, (4-(((3R, 4R)-1-(2-cyanoacetyl)-4-methylpiperidin-3-yl) (methyl)amino)-7H-pyrrolo [2,3-d]pyrimidin-7-yl) methyl 2-acetoxybenzoate]	0.07 %/day
Cc1c(Cl)cccc1Nc1ccccc1C(=O)n1ccc2c(-c3cnn([C@H](CC#N)C4CCCC4)c3)ncnc21 [Ex. 57, (R)-3-(4-(7-(2-((3-chloro-2-methylphenyl)amino)benzoyl)-7H-pyrrolo [2,3-d]pyrimidin-4-yl)-1H-pyrazol-1-yl)-3-cyclopentylpropanenitrile]	0.57 %/day
CCS(=O)(=O)N1CC(CC#N)(n2cc(-c3ncnc4c3ccn4COC(=O)[C@@H](C)c3ccc(CC(C)C)cc3)cn2)C1 [Ex. 60, Methyl (4-(1-(3-(cyanomethyl)-1-(ethylsulfonyl)azetidin-3-yl)-1H-pyrazol-4-yl)-7H-pyrrolo [2,3-d]pyrimidin-7-yl) (S)-2-(4-isobutylphenyl) propanoate]	<0.01 %/day
CCc1cccc2c3c([nH]c12)C(CC)(CC(=O)OCn1ccc2c(N(C)[C@H]4CN(C(=O)CC#N)CC[C@H]4C)ncnc21)OCC3 (stereo partly drawn) [Ex. 63, (4-(((3R, 4R)-1-(2-cyanoacetyl)-4-methylpiperidin-3-yl) (methyl)amino)-7H-pyrrolo [2,3-d]pyrimidin-7-yl) methyl 2-(1,8-diethyl-1,3,4,9-tetrahydropyrano [3,4-b]indol-1-yl) acetate]	0.02 %/day
C[C@@H]1CCN(C(=O)CC#N)C[C@@H]1N(C)c1ncnc2c1ccn2COC(=O)[C@@H](NC(=O)OC(C)(C)C)c1ccccc1 [Ex. 64, (4-(((3R, 4R)-1-(2-cyanoacetyl)-4-methylpiperidin-3-yl) (methyl)amino)-7H-pyrrolo [2,3-d]pyrimidin-7-yl) methyl (S)-2-((tert-butoxycarbonyl)amino)-2-phenylacetate]	0.88 %/day
CCC(C(=O)OCn1ccc2c(N(C)[C@H]3CN(C(=O)CC#N)CC[C@H]3C)ncnc21)c1ccc(N2Cc3ccccc3C2=O)cc1 (stereo partly drawn) [Ex. 65, (4-(((3R, 4R)-1-(2-cyanoacetyl)-4-methylpiperidin-3-yl) (methyl)amino)-7H-pyrrolo [2,3-d]pyrimidin-7-yl) methyl 2-(4-(1-oxoisoindol-2-yl)) phenyl) butanoate]	0.01 %/day
CCS(=O)(=O)N1CC(CC#N)(n2cc(-c3ncnc4c3ccn4COC(=O)Cc3ccccc3Nc3c(Cl)cccc3Cl)cn2)C1 [Ex. 70, Methyl (4-(1-(3-(cyanomethyl)-1-(ethylsulfonyl)azetidin-3-yl)-1H-pyrazol-4-yl)-7H-pyrrolo [2,3-d]pyrimidin-7-yl) 2-(2-((2,6-dichlorophenyl)amino)phenyl) acetate]	0.42 %/day
CCS(=O)(=O)N1CC(CC#N)(n2cc(-c3ncnc4c3ccn4COC(=O)C(C)c3cccc(Oc4ccccc4)c3)cn2)C1 (stereo not shown) [Ex. 71, Methyl (4-(1-(3-(cyanomethyl)-1-(ethylsulfonyl)azetidin-3-yl)-1H-pyrazol-4-yl)-7H-pyrrolo [2,3-d]pyrimidin-7-yl) 2-(3-phenoxyphenyl) propanoate]	0.01 %/day
CCS(=O)(=O)N1CC(CC#N)(n2cc(-c3ncnc4c3ccn4COC(=O)C(C)c3ccc(CC4CCCC4=O)cc3)cn2)C1 (stereo not shown) [Ex. 72, Methyl (4-(1-(3-(cyanomethyl)-1-(ethylsulfonyl)azetidin-3-yl)-1H-pyrazol-4-yl)-7H1-pyrrolo [2,3-d]pyrimidin-7-yl) 2-(4-((2-oxocyclopentyl)methyl)phenyl) propanoate]	<0.01 %/day
CCS(=O)(=O)N1CC(CC#N)(n2cc(-c3ncnc4c3ccn4COC(=O)[C@@H](NC(=O)OC(C)(C)C)c3ccccc3)cn2)C1 [Ex. 74, Methyl (4-(1-(3-(cyanomethyl)-1-(ethylsulfonyl)azetidin-3-yl)-1H-pyrazol-4-yl)-7H-pyrrolo [2,3-d]pyrimidin-7-yl) (S)-2-((tert-butoxycarbonyl)amino)-2-phenylacetate]	0.44 %/day
CCC(C(=O)OCn1ccc2c(-c3cnn(C4(CC#N)CN(S(=O)(=O)CC)C4)c3)ncnc21)c1ccc(N2Cc3ccccc3C2=O)cc1 (stereo not shown) [Ex. 76, Methyl (4-(1-(3-(cyanomethyl)-1-(ethylsulfonyl)azetidin-3-yl)-1H-pyrazol-4-yl)-7H-pyrrolo [2,3-d]pyrimidin-7-yl) 2-(4-(1-oxoisoindolin-2-yl)phenyl) butanoate]	0.05 %/day
COc1ccc2c(c1)c(CC(=O)n1ccc3c(-c4cnn([C@H](CC#N)C5CCCC5)c4)ncnc31)c(C)n2C(=O)c1ccc(Cl)cc1 [Ex. 79, (R)-3-(4-(7-(2-(1-(4-chlorobenzoyl)-5-methoxy-2-methyl-1H-indol-3-yl)acetyl)-7H-pyrrolo [2,3-d]pyrimidin-4-yl)-1H-pyrazol-1-yl)-3-cyclopentylpropanenitrile]	7.38 %/day

Results, then the compound that gave them:

Release Rate (%/day)	Structure (SMILES)
12.46 %/day	CNS(=O)(=O)C[C@H]1CC[C@H](N(C)c2ncnc3c2ccn3C(=O)Cc2ccc(NC(C)=O)cc2)CC1 [Ex. 58, N-(4-(2-(4-(methyl ((trans)-4-((N-methylsulfamoyl)methyl)cyclohexyl)amino)-7H-pyrrolo [2,3-d]pyrimidin-7-yl)-2-oxoethyl)phenyl) acetamide]
0.15 %/day	CC(=O)Nc1ccc(CC(=O)OCn2ccc3c(N(C)[C@H]4CN(C(=O)CC#N)CC[C@H]4C)ncnc32)cc1 [Ex. 59, (4-(((3R, 4R)-1-(2-cyanoacetyl)-4-methylpiperidin-3-yl) (methyl)amino)-7H-pyrrolo [2,3-d]pyrimidin-7-yl) methyl 2-(4-acetamidophenyl) acetate]
<0.01 %/day	CCS(=O)(=O)N1CC(CC#N)(n2cc(-c3ncnc4c3ccn4COC(=O)[C@@H](C)c3ccc4cc(OC)ccc4c3)cn2)C1 [Ex. 61, Methyl (4-(1-(3-(cyanomethyl)-1-(ethylsulfonyl)azetidin-3-yl)-1H-pyrazol-4-yl)-7H-pyrrolo [2,3-d]pyrimidin-7-yl) (S)-2-(6-methoxynaphthalen-2-yl) propanoate]
0.01 %/day	CCS(=O)(=O)N1CC(CC#N)(n2cc(-c3ncnc4c3ccn4COC(=O)C(C)c3cccc(C(=O)c4ccccc4)c3)cn2)C1 (stereo not shown) [Ex. 62, 4-(1-(3-(cyanomethyl)-1-(ethylsulfonyl)azetidin-3-yl)-1H-pyrazol-4-yl)-7H-pyrrolo [2,3-d] pyrimidin-7-yl) methyl 2-(3-benzoylphenyl) propanoate]
0.06 %/day	Cc1c(Cl)cccc1Nc1ccccc1C(=O)OCn1ccc2c(N(C)[C@H]3CN(C(=O)CC#N)CC[C@H]3C)ncnc21 [Ex. 66, (4-(((3R, 4R)-1-(2-cyanoacetyl)-4-methylpiperidin-3-yl) (methyl)amino)-7H-pyrrolo [2,3-d]pyrimidin-7-yl) methyl 2-((3-chloro-2-methylphenyl)amino) benzoate]
0.02 %/day	Cc1cccc(Nc2ccccc2C(=O)OCn2ccc3c(N(C)[C@H]4CN(C(=O)CC#N)CC[C@H]4C)ncnc32)c1C [Ex. 67, (4-(((3R, 4R)-1-(2-cyanoacetyl)-4-methylpiperidin-3-yl) (methyl)amino)-7H-pyrrolo [2,3-d]pyrimidin-7-yl) methyl 2-((2,3-dimethylphenyl)amino) benzoate]
10.6 %/day	CNS(=O)(=O)C[C@H]1CC[C@H](N(C)c2ncnc3c2ccn3C(=O)C(C)c2cccc(Oc3ccccc3)c2)CC1 (stereo partly drawn) [Ex. 68, N-methyl-1-((trans)-4-(methyl (7-(2-(3-phenoxyphenyl)propanoyl)-7H-pyrrolo [2,3-d]pyrimidin-4-yl)amino)cyclohexyl) methanesulfonamide]
0.03 %/day	CCS(=O)(=O)N1CC(CC#N)(n2cc(-c3ncnc4c3ccn4COC(=O)C(C)c3ccc(-c4ccccc4)c(F)c3)cn2)C1 (stereo not shown) [Ex. 69, Methyl (4-(1-(3-(cyanomethyl)-1-(ethylsulfonyl)azetidin-3-yl)-1H-pyrazol-4-yl)-7H-pyrrolo [2,3-d]pyrimidin-7-yl) 2-(2-fluoro-[1, 1′-biphenyl]-4-yl) propanoate]
0.2 %/day	CCS(=O)(=O)N1CC(CC#N)(n2cc(-c3ncnc4c3ccn4COC(=O)Cc3c(C)n(C(=O)c4ccc(Cl)cc4)c4ccc(OC)cc34)cn2)C1 [Ex. 73, Methyl (4-(1-(3-(cyanomethyl)-1-(ethylsulfonyl)azetidin-3-yl)-1H-pyrazol-4-yl)-7H-pyrrolo [2,3-d]pyrimidin-7-yl) 2-(1-(4-chlorobenzoyl)-5-methoxy-2-methyl-1H-indol-3-yl) acetate]
10.38 %/day	N#CC[C@H](C1CCCC1)n1cc(-c2ncnc3c2ccn3C(=O)Cc2ccccc2Nc2c(Cl)cccc2Cl)cn1 [Ex. 75, (R)-3-cyclopentyl-3-(4-(7-(2-(2-((2,6-dichlorophenyl)amino)phenyl)acetyl)-7H-pyrrolo [2,3-d]pyrimidin-4-yl)-1H-pyrazol-1-yl) propanenitrile]
3.69 %/day	CC(C(=O)n1ccc2c(-c3cnn([C@H](CC#N)C4CCCC4)c3)ncnc21)c1ccc(CC2CCCC2=O)cc1 (stereo partly drawn) [Ex. 77, (3R)-3-cyclopentyl-3-(4-(7-(2-(4-((2-oxocyclopentyl)methyl)phenyl)propanoyl)-7H-pyrrolo [2,3-d]pyrimidin-4-yl)-1H-pyrazol-1-yl) propanenitrile]
6.27 %/day	CC(=O)Nc1ccc(CC(=O)n2ccc3c(-c4cnn([C@H](CC#N)C5CCCC5)c4)ncnc32)cc1 [Ex. 78, (R)—N-(4-(2-(4-(1-(2-cyano-1-cyclopentylethyl)-1H-pyrazol-4-yl)-7H-pyrrolo [2,3-d]pyrimidin-7-yl)-2-oxoethyl)phenyl) acetamide]
27.29 %/day	CC(C)(C)OC(=O)N[C@H](C(=O)n1ccc2c(-c3cnn([C@H](CC#N)C4CCCC4)c3)ncnc21)c1ccccc1 [Ex. 80, Tert-butyl ((S)-2-(4-(1-((R)-2-cyano-1-cyclopentylethyl)-1H-pyrazol-4-yl)-7H-pyrrolo [2,3-d]pyrimidin-7-yl)-2-oxo-1-phenylethyl) carbamate]
